These results are taken from US20080045514A1 (Cytovia, Inc., priority 2006, published 2008).

Structures can show the parent of a compound that is named as a salt.

Holding throughout (assay type): cell-based
Assay [1] concerns human colon carcinoma cell line HCT116. As to the kind of experiment: Inhibition of cell proliferation (GI50), HCT116. The note with it: Homo sapiens; HCT 116 cells, 48 h, CellTiter-Glo. In outline:
(§1)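 CellTiter-Glo luminescence readout after 48 h compound exposure (1 nM–10 μM final), 37 °C, 5% CO2; seeding 4.4×10^4 cells/mL in RPMI-1640/DMSO. Untreated wells give maximal growth; wells read at 0.5 h give starting cell number; GI50 = 50% of net growth over baseline.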

The subject of assay [2] is human B cell lymphoblastoid cell line Ramos. As to the kind of experiment: Caspase cascade activation (EC50), Ramos. The conditions noted are these: Homo sapiens, RAMOS cells, read-out: caspase potency (EC50) RAMOS. In outline:
(§2)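 Cells at 0.65×10^6 cells/mL exposed to compound at 0.016 to 10 μM final (1% DMSO) for 48 h at 37° C, 5% CO2. Caspase activity then read with 14 μM Ac-DEVD-R110 fluorogenic substrate in lysolecithin/DTT/PIPES pH 7.2 buffer at ex 485/em 530 nm after 3 h at room temperature. EC50 fitted sigmoidally from net RFU ratio to control.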

Assay [3] relates to human lymphoma cell line Raji. As to the kind of experiment: Caspase cascade activation (EC50), Raji. The note with it: Homo sapiens, RAJI cells, read-out: caspase potency (EC50) RAJI. In outline:
as §2

Assay [4] concerns human Burkitt's lymphoma cell line Namalwa. Briefly: Caspase cascade activation (EC50), Namalwa. The note with it: Homo sapiens, Burkitts lymphoma cell; Namalwa cells; caspase cascade activation; read-out: caspase potency (EC50) Namalwa. In outline:
as §2

Assay [5] concerns human hepatocellular carcinoma cell line SNU398. As to the kind of experiment: Inhibition of cell proliferation (GI50), SNU398. The note with it: Homo sapiens; SNU 398 cells, 48 h, CellTiter-Glo. As to the method:
(§3) Human breast cancer cell lines T-47D, human hepatocellular carcinoma cell line SNU398, human colon carcinoma cell line HCT116, human lung cancer cell line H1299, human leukemia cell line K562, human lymphoma cell line Raji, human B cell lymphoblastoid cell line Ramos, and human Burkitt's lymphoma cell line Namalwa were grown and harvested as in Example 100. An aliquot of […] of cells (4.4×10^4 cells/mL) was added to a well of a 96-well microtiter plate containing 5 μL of a 10% DMSO in RPMI-1640 media solution containing 10 nM to 100 μM of 3-(2-chlorophenyl)-6-(3,4-methylenedioxyphenyl)-7H-[1,2,4]triazolo[3,4-b][1,3,4]thiadiazine (1 nM to 10 μM final). An aliquot of 45 μL of cells was added to a well of a 96-well microtiter plate containing 5 μL of a 10% DMSO in RPMI-1640 media solution without compound as the control sample for maximal cell proliferation (LMax). The samples were mixed by agitation and then incubated at 37° C. for 48 h in a 5% CO2-95% humidity incubator. After incubation, the samples were removed from the incubator and 25 μL of CellTiter-Glo™ reagent (Promega) was added. The samples were mixed by agitation and incubated at room temperature for 10-15 min. Plates were then read using a luminescent plate reader (Model SPECTRAfluor Plus, Tecan) to give Ltest values.
(§4) The samples were mixed by agitation and then incubated at 37° C. for 0.5 h in a 5% CO2-95% humidity incubator. After incubation, the samples were removed from the incubator and 25 μL of CellTiter-Glo™ reagent (Promega) was added. The samples were mixed by agitation and incubated at […] 10-15 min at room temperature in a 5% CO2-95% humidity incubator. Fluorescence was read as above, (LStart) defining luminescence for initial cell number used as baseline in GI50 determinations.
(§5) Calculation: GI50 (dose for 50% inhibition of cell proliferation) is the concentration where [(Ltest−LStart)/(LMax−LStart)]=0.5.

The subject of assay [6] is human Burkitt's lymphoma cell line Namalwa. Briefly: Inhibition of cell proliferation (GI50), Namalwa. The note with it: Homo sapiens, Burkitts lymphoma cell; Namalwa cells, 48 h, CellTiter-Glo. In outline:
as §1

Assay [7] has as its system human breast cancer cell line T-47D. As to the kind of experiment: Inhibition of cell proliferation (GI50), T47D. The conditions noted are these: Homo sapiens; T47D cells, 48 h, CellTiter-Glo. As to the method: as §3, §4, §5
Assay [8] has the same test system. As to the kind of experiment: Caspase cascade activation (EC50), T-47D. The conditions noted are these: Homo sapiens; T47D cells; caspase cascade activation; read-out: caspase potency (EC50) T47D. In outline:
as §2

Assay [9] deals with human colon carcinoma cell line HCT116. Briefly: Caspase cascade activation (EC50), HCT116. The note with it: Homo sapiens, HCT-116; HCT116 cells; caspase cascade activation; read-out: caspase potency (EC50) HCT116. In outline:
as §2

For assay [10], the system named is human hepatocellular carcinoma cell line SNU398. As to the kind of experiment: Caspase cascade activation (EC50), SNU398. The conditions noted are these: Homo sapiens, SNU-398; SNU398 cells; caspase cascade activation; read-out: caspase potency (EC50) SNU398. In outline:
as §2

On to `CCN(CC)c1ccc(C2=Nn3c(nnc3-c3cc(OC)c(OC)c(OC)c3)SC2)cc1` [Example 21, 6-(4-Diethylaminophenyl)-3-(3,4,5-trimethoxyphenyl)-7H-[1,2,4]triazolo[3,4-b][1,3,4]thiadiazine hydrochloride], for which the 50% growth inhibitory concentration (GI50) is 680 nM in [1], 20 nM in assay [5], 176 nM in assay [6] and 185 nM in assay [7]. For the same compound, the values for the 50% effective concentration (EC50) in [2], in assay [3] and in [4] were 272 nM, 434 nM and 280 nM, respectively.
For `CCOc1ccccc1-c1nnc2n1N=C(c1ccc(C)cc1)CS2` [Example 19, 3-(2-Ethoxyphenyl)-6-(4-methylphenyl)-7H-[1,2,4]triazolo[3,4-b][1,3,4]thiadiazine hydrobromide], the GI50 is 67 nM in assay [1], 12 nM in assay [5], 12 nM in assay [6] and 48 nM in [7]. Further, the half-maximal effective concentration (EC50) in assay [8] was 35 nM; in assay [2], 20 nM; in assay [9], 32 nM; in assay [3], 29 nM; in assay [4], 17 nM; in assay [10], 24 nM.
For the compound `COc1ccc(C2=Nn3c(nnc3-c3ccc(OC)cc3OC)SC2)cc1` [Example 18, 3-(2,4-Dimethoxyphenyl)-6-(4-methoxyphenyl)-7H-[1,2,4]triazolo[3,4-b][1,3,4]thiadiazine hydrochloride], the 50% growth inhibitory concentration (GI50) in assay [1] came out at 34 nM; in assay [5], 1 nM; in assay [6], 6 nM; in assay [7], 28 nM. The EC50 came out at 32 nM in assay [8]; 7 nM in [2]; 17 nM in assay [9]; 15 nM in [3]; 7 nM in assay [4]; 6 nM in [10].
On to `COc1ccc(C2=Nn3c(nnc3-c3cc(OC)cc(OC)c3)SC2)cc1` [Example 20, 3-(3,5-Dimethoxyphenyl)-6-(4-methoxyphenyl)-7H-[1,2,4]triazolo[3,4-b][1,3,4]thiadiazine hydrobromide], for which the GI50 stood at 99 nM in assay [1], 11 nM in assay [5], 13 nM in assay [6] and 373 nM in assay [7]. Further, the EC50 in assay [2] amounted to 36 nM; in assay [3], 95 nM; in assay [4], 55 nM.
In the case of `COc1ccc(OC)c(-c2nnc3n2N=C(c2ccc(C)cc2)CS3)c1` [Example 69, 3-(2,5-Dimethoxyphenyl)-6-(4-methylphenyl)-7H-[1,2,4]triazolo[3,4-b][1,3,4]thiadiazine], the GI50 in assay [1] was determined as 41 nM; in assay [5] it was 4 nM; in [6] it was 10 nM; in assay [7] it was 50 nM. Further, the concentration giving a half-maximal response (EC50) is 42 nM in [8], 17 nM in [9], 11 nM in assay [4] and 15 nM in assay [10].
As for `COc1ccccc1-c1nnc2n1N=C(c1ccc(C)c(C)c1)CS2` [Example 40, 3-(2-Methoxyphenyl)-6-(3,4-dimethylphenyl)-7H-[1,2,4]triazolo[3,4-b][1,3,4]thiadiazine], the 50% growth inhibitory concentration (GI50) was determined as 129 nM in assay [1], 50 nM in [5], 29 nM in assay [6] and 137 nM in assay [7]. For the same compound, the EC50 in assay [8] came to 163 nM; in assay [9], 65 nM; in [4], 49 nM; in assay [10], 41 nM.
With `COc1ccccc1-c1nnc2n1N=C(c1ccc(N(C)C)cc1)CS2` [Example 77, 6-(4-dimethylaminophenyl)-3-(2-methoxyphenyl)-7H-[1,2,4]triazolo[3,4-b][1,3,4]thiadiazine], the 50% growth inhibitory concentration (GI50) was 12 nM in [1], 2 nM in assay [5], 5 nM in assay [6] and 5 nM in [7]. Also, the EC50 in assay [8] turned out to be 18 nM; in assay [9], 11 nM; in assay [4], 7 nM; in assay [10] it was 14 nM.
Consider `COc1ccccc1-c1nnc2n1N=C(c1ccc(OC)c(OC)c1OC)CS2` [Example 42, 6-(2,3,4-Trimethoxyphenyl)-3-(2-methoxyphenyl)-7H-[1,2,4]triazolo[3,4-b][1,3,4]thiadiazine], for which the 50% growth inhibitory concentration (GI50) in [1] came to 482 nM; in assay [5], 121 nM; in assay [6], 433 nM; in assay [7], 288 nM. The 50% effective concentration (EC50) in assay [8] amounted to 335 nM; in [9] it was 753 nM; in assay [4] it was 316 nM; in [10], 488 nM.
As to `COc1ccccc1-c1nnc2n1N=C(c1ccc(NC(C)C)cc1)CS2` [Example 80, 6-(4-Isopropylaminophenyl)-3-(2-methoxyphenyl)-7H-[1,2,4]triazolo[3,4-b][1,3,4]thiadiazine], the GI50 in [1] is 300 nM; in [5], 115 nM; in [6] it was 170 nM; in assay [7] it was 297 nM. Besides, the EC50 was 188 nM in assay [8], 204 nM in [9], 115 nM in assay [4] and 117 nM in assay [10].
As to `COc1ccc(Cl)cc1-c1nnc2n1N=C(c1ccc(C)cc1)CS2` [Example 62, 3-(5-Chloro-2-methoxyphenyl)-6-(4-methylphenyl)-7H-[1,2,4]triazolo[3,4-b][1,3,4]thiadiazine], the 50% growth inhibitory concentration (GI50) in assay [1] is 50 nM; in assay [5], 10 nM; in assay [6], 15 nM; in assay [7], 33 nM. Further, the EC50 in assay [8] is 101 nM; in assay [9], 31 nM; in assay [4], 18 nM; in assay [10], 24 nM.
In the case of `COc1cc(-c2nnc3n2N=C(c2ccc(N)cc2)CS3)cc(OC)c1OC` [Example 66, 6-(4-Aminophenyl)-3-(3,4,5-trimethoxyphenyl)-7H-[1,2,4]triazolo[3,4-b][1,3,4]thiadiazine], the 50% growth inhibitory concentration (GI50) in assay [1] was found to be 127 nM; in assay [5] it was 24 nM; in [6], 43 nM; in [7], 47 nM. Moreover, the half-maximal effective concentration (EC50) turned out to be 72 nM in assay [8], 29 nM in [9], 16 nM in assay [4] and 21 nM in assay [10].
Turning to `COc1ccccc1-c1nnc2n1N=C(c1ccc(C(F)(F)F)cc1)CS2` [Example 48, 6-(4-(Trifluoromethyl)phenyl)-3-(2-methoxyphenyl)-7H-[1,2,4]triazolo[3,4-b][1,3,4]thiadiazine], the GI50 in assay [1] amounted to 324 nM; in assay [5], 120 nM; in [6], 452 nM; in [7] it was 690 nM. Further, the EC50 in assay [8] was 545 nM; in assay [9] it was 569 nM; in assay [4], 480 nM; in assay [10], 511 nM.
